Reference: patent US20240287368A1, “COMPOSITION CONTAINING REFRIGERANT, USE OF SAME, REFRIGERATOR HAVING SAME, AND METHOD FOR OPERATING SAID REFRIGERATOR” (DAIKIN INDUSTRIES, LTD., priority 2021, published 2024)

Tests used:
[1] = Occupational exposure limit (OEL) and ASHRAE toxicity class of mixed refrigerant, calculated from component OELs and mole fractions; details: ANSI/ASHRAE Standard 34-2019; for Occupational exposure limit: center composition of mixed refrigerant
From the text: In the present specification, a “toxicity class A” refrigerant means that the occupational exposure limit (OEL) of the mixed refrigerant is 400 ppm or more in accordance with the US ANSI/ASHRAE Standard 34-2019. A “toxicity class B” refrigerant means that the occupational exposure limit of the mixed refrigerant is less than 400 ppm in accordance with the US ANSI/ASHRAE Standard 34-2019.
In the present disclosure, the occupational exposure limit (OEL) of a mixed refrigerant refers to a value evaluated based on the center composition, unless otherwise specified. However, calculation is performed with the OEL of each refrigerant as follows. • R32: 1000 ppm • R152a: 1000 ppm • HFO-1132(E): 350 ppm
The OEL of the center composition of a mixed refrigerant is calculated in accordance with the following formula.
wherein an represents the OEL of each refrigerant compound, and mfn represents the mole fraction of each refrigerant compound.
The occupational exposure limit (OEL value) of each mixed refrigerant was investigated.

[2] = component values used for the calculation; cited from earlier work

| Compound | ASHRAE toxicity class [1] | Occupational exposure limit [1] [ppm] | OEL of each refrigerant [2] [ppm] |
| --- | --- | --- | --- |
| CC(F)F [0-2, 1,1-difluoroethane] | A (the occupational exposure limit (OEL) of the mixed refrigerant is 400 ppm or more) | 1000 |  |
| F/C=C/F [0-1, trans-1,2-difluoroethylene] | B (the occupational exposure limit of the mixed refrigerant is less than 400 ppm) | 350 | 350 |
| FCF [0-3, difluoromethane] | A (the occupational exposure limit (OEL) of the mixed refrigerant is 400 ppm or more) | 1000 | 1000 |
